Data taken from the supplement of paper PMC10307832.

Columns and labels:
Assay in all cases: relative viability (nuclei count vs DMSO), 5 days (fraction); higher = more cells survive
Alisertib + Pictilisib = compound: COc1cc(Nc2ncc3c(n2)-c2ccc(Cl)cc2C(c2c(F)cccc2OC)=NC3)ccc1C(=O)O [Alisertib] + CS(=O)(=O)N1CCN(Cc2cc3nc(-c4cccc5[nH]ncc45)nc(N4CCOCC4)c3s2)CC1 [Pictilisib] (partner 1 µM)
Procedure, shortened: (§1)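 Relative viability equals treated-well nuclei counts divided by vehicle-well nuclei counts. Counts came from 4× images of lung cancer cell lines grown in 1536-well plates for 5 days after pin-tool dosing on the day after seeding. Dosing used one drug alone or a fixed anchor-drug dose plus five library-drug doses (not always all listed) in √10 steps, and values are medians of duplicate plates.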

Alisertib + Phenformin = compound: COc1cc(Nc2ncc3c(n2)-c2ccc(Cl)cc2C(c2c(F)cccc2OC)=NC3)ccc1C(=O)O [Alisertib] + N=C(N)NC(=N)NCCc1ccccc1 [Phenformin] (partner 250 µM)
Procedure, shortened: as §1

Alisertib + Palbociclib = compound: COc1cc(Nc2ncc3c(n2)-c2ccc(Cl)cc2C(c2c(F)cccc2OC)=NC3)ccc1C(=O)O [Alisertib] + CC(=O)c1c(C)c2cnc(Nc3ccc(N4CCNCC4)cn3)nc2n(C2CCCC2)c1=O [Palbociclib] (partner 0.5 µM)
Procedure, shortened: as §1

Alisertib + Decitabine = compound: COc1cc(Nc2ncc3c(n2)-c2ccc(Cl)cc2C(c2c(F)cccc2OC)=NC3)ccc1C(=O)O [Alisertib] + Nc1ncn([C@H]2C[C@H](O)[C@@H](CO)O2)c(=O)n1 [Decitabine] (partner 2 µM)
Procedure, shortened: as §1

Row | Cell Line | relative viability (Alisertib + Pictilisib; first compound 0.005 µM) | relative viability (Alisertib + Pictilisib; first compound 0.01581 µM) | relative viability (Alisertib + Pictilisib; first compound 0.05 µM) | relative viability (Alisertib + Pictilisib; first compound 0.1581 µM) | relative viability (Alisertib + Pictilisib; first compound 0.5 µM) | relative viability (Alisertib + Phenformin; first compound 0.005 µM) | relative viability (Alisertib + Phenformin; first compound 0.01581 µM) | relative viability (Alisertib + Phenformin; first compound 0.05 µM) | relative viability (Alisertib + Phenformin; first compound 0.1581 µM) | relative viability (Alisertib + Phenformin; first compound 0.5 µM) | relative viability (Alisertib + Palbociclib; first compound 0.005 µM) | relative viability (Alisertib + Palbociclib; first compound 0.01581 µM) | relative viability (Alisertib + Palbociclib; first compound 0.05 µM) | relative viability (Alisertib + Palbociclib; first compound 0.1581 µM) | relative viability (Alisertib + Palbociclib; first compound 0.5 µM) | relative viability (Alisertib + Decitabine; first compound 0.005 µM) | relative viability (Alisertib + Decitabine; first compound 0.01581 µM) | relative viability (Alisertib + Decitabine; first compound 0.05 µM) | relative viability (Alisertib + Decitabine; first compound 0.1581 µM) | relative viability (Alisertib + Decitabine; first compound 0.5 µM)
1 | H3255 | 0.472 | 0.447 | 0.286 | 0.165 | 0.152 | 0.329 | 0.338 | 0.313 | 0.299 | 0.294 | 0.313 | 0.314 | 0.312 | 0.278 | 0.249 | 0.602 | 0.467 | 0.396 | 0.241 | 0.143
2 | EPLC-272H | 0.281 | 0.244 | 0.227 | 0.14 | 0.124 | 0.251 | 0.238 | 0.284 | 0.101 | 0.12 | 0.32 | 0.318 | 0.303 | 0.236 | 0.238 | 0.344 | 0.363 | 0.295 | 0.141 | 0.152
3 | RERF-LC-KJ | 0.49 | 0.517 | 0.435 | 0.206 | 0.159 | 0.382 | 0.377 | 0.246 | 0.219 | 0.233 | 1.07 | 0.834 | 0.601 | 0.275 | 0.246 | 0.731 | 0.443 | 0.258 | 0.173 | 0.247
4 | NCI-H1793 | 0.327 | 0.297 | 0.23 | 0.18 | 0.208 | 0.312 | 0.233 | 0.291 | 0.191 | 0.148 | 0.332 | 0.3 | 0.273 | 0.215 | 0.234 | 0.359 | 0.309 | 0.196 | 0.24 | 0.206
5 | EKVX | 0.405 | 0.418 | 0.266 | 0.157 | 0.15 | 0.209 | 0.209 | 0.135 | 0.129 | 0.131 | 0.386 | 0.431 | 0.27 | 0.183 | 0.176 | 0.303 | 0.302 | 0.206 | 0.174 | 0.158
6 | ChaGo-K-1 | 0.632 | 0.457 | 0.267 | 0.283 | 0.184 | 0.426 | 0.382 | 0.418 | 0.151 | 0.139 | 0.817 | 0.686 | 0.219 | 0.203 | 0.166 | 0.518 | 0.423 | 0.222 | 0.197 | 0.19
7 | NCI-H23 | 0.422 | 0.302 | 0.18 | 0.185 | 0.147 | 0.666 | 0.512 | 0.518 | 0.233 | 0.163 | 0.476 | 0.442 | 0.319 | 0.205 | 0.203 | 0.3 | 0.184 | 0.184 | 0.2 | 0.178
8 | EMC-BAC-2 | 0.516 | 0.414 | 0.291 | 0.271 | 0.233 | 0.389 | 0.343 | 0.27 | 0.245 | 0.197 | 0.51 | 0.416 | 0.4 | 0.382 | 0.268 | 0.849 | 0.694 | 0.445 | 0.343 | 0.291
